Reference: ChEMBL document CHEMBL3885881, “DrugMatrix”
Values joined by “and” are separate entries in the source; they are usually repeats but may differ in a detail not shown here. Identical values can stand only once.

Species on record: Rattus norvegicus
Assay: DrugMatrix - Regimen: Daily Repeat
Type: toxicity, organism-based, Sprague-Dawley
Set-up: regimen Daily Repeat, gender Male, age 6-8 weeks
Settings: in vivo, po, route oral GAVAGE, vehicle .5 % CMC; for ABSOLUTE BASOPHIL / ABSOLUTE EOSINOPHIL / ABSOLUTE LYMPHOCYTE / ABSOLUTE MONOCYTE / BASOPHIL / EOSINOPHIL / ERYTHROCYTE COUNT / HEMATOCRIT / HEMOGLOBIN / LEUKOCYTE COUNT / LYMPHOCYTE / MEAN CORPUSCULAR HEMOGLOBIN / MEAN CORPUSCULAR HEMOGLOBIN CONCENTRATION / MEAN CORPUSCULAR VOLUME / MONOCYTE / NEUTROPHIL / PLATELET COUNT / ABSOLUTE SEGMENTED NEUTROPHIL / NUCLEATED RED BLOOD CELLS: tissue Blood; for ALANINE AMINOTRANSFERASE / ALBUMIN / ALKALINE PHOSPHATASE / ASPARTATE AMINOTRANSFERASE / BLOOD UREA NITROGEN / CARBON DIOXIDE / CHLORIDE / CHOLESTEROL / CREATINE PHOSPHOKINASE / CREATININE / GLUCOSE / LACTATE DEHYDROGENASE / LIPASE / PHOSPHORUS / POTASSIUM / SODIUM / TOTAL BILIRUBIN / TOTAL PROTEIN / URIC ACID: tissue Plasma
[1] = 10 mg/kg, […], dose level Low, time 14 day
[2] = 100 mg/kg, 72 h, dose level High, time 3 day
[3] = 100 mg/kg, 120 h, dose level High, time 5 day
[4] = 100 mg/kg, […], dose level High, time 14 day

CN(C)CCN(Cc1cccs1)c1ccccn1
ABSOLUTE BASOPHIL [1]: 83.3 cells/µL | ABSOLUTE EOSINOPHIL [1]: 66.7 cells/µL | ABSOLUTE LYMPHOCYTE [1]: 10000 cells/µL | ABSOLUTE MONOCYTE [1]: 240 cells/µL | BASOPHIL [1]: 0.53% | EOSINOPHIL [1]: 0.52% | ERYTHROCYTE COUNT [1]: 7.47 x10E6/uL | HEMATOCRIT [1]: 47.12% | HEMOGLOBIN [1]: 14.82 G/DL | LEUKOCYTE COUNT [1]: 12.98 x10E3/uL | LYMPHOCYTE [1]: 76.93% | MEAN CORPUSCULAR HEMOGLOBIN [1]: 19.85 pg | MEAN CORPUSCULAR HEMOGLOBIN CONCENTRATION [1]: 31.43 G/DL | MEAN CORPUSCULAR VOLUME [1]: 63.1 fL | MONOCYTE [1]: 1.83% | NEUTROPHIL [1]: 19.2% | PLATELET COUNT [1]: 1264.5 x10E3/uL | ALANINE AMINOTRANSFERASE [1]: 47.67 u/L | ALBUMIN [1]: 3.87 G/DL | ALKALINE PHOSPHATASE [1]: 477 u/L | ASPARTATE AMINOTRANSFERASE [1]: 81.33 u/L | BLOOD UREA NITROGEN [1]: 14.83 mg/dL | CARBON DIOXIDE [1]: 38.33 mmol/L | CHLORIDE [1]: 105.17 MEQ/L | CHOLESTEROL [1]: 68.67 mg/dL | CREATINE PHOSPHOKINASE [1]: 223.17 u/L | CREATININE [1]: 0.68 mg/dL | GLUCOSE [1]: 155.83 mg/dL | LACTATE DEHYDROGENASE [1]: 95.83 u/L | LIPASE [1]: 18.67 u/L | PHOSPHORUS [1]: 10.72 mg/dL | POTASSIUM [1]: 6.3 MEQ/L | SODIUM [1]: 151.83 MEQ/L | TOTAL BILIRUBIN [1]: 0.27 mg/dL | TOTAL PROTEIN [1]: 6.77 G/DL | URIC ACID [1]: 1.22 mg/dL | ABSOLUTE BASOPHIL [2]: 0 CELLS/uL | ABSOLUTE EOSINOPHIL [2]: 62.67 CELLS/uL | ABSOLUTE LYMPHOCYTE [2]: 11170 CELLS/uL | ABSOLUTE MONOCYTE [2]: 125.33 CELLS/uL | ABSOLUTE SEGMENTED NEUTROPHIL [2]: 1608.67 CELLS/uL | BASOPHIL [2]: 0% | EOSINOPHIL [2]: 0.33% | ERYTHROCYTE COUNT [2]: 5.22 x10E6/uL | HEMATOCRIT [2]: 32.67% | HEMOGLOBIN [2]: 12.17 G/DL | LEUKOCYTE COUNT [2]: 12.97 x10E3/uL | LYMPHOCYTE [2]: 81.67% | MEAN CORPUSCULAR HEMOGLOBIN [2]: 23.37 pg | MEAN CORPUSCULAR HEMOGLOBIN CONCENTRATION [2]: 37.27 G/DL | MEAN CORPUSCULAR VOLUME [2]: 62.6 fL | MONOCYTE [2]: 0.67% | NEUTROPHIL [2]: 17.33% | NUCLEATED RED BLOOD CELLS [2]: 0 /100WBC | PLATELET COUNT [2]: 1093.67 x10E3/uL | ALANINE AMINOTRANSFERASE [2]: 71.33 u/L | ALBUMIN [2]: 3.77 G/DL | ALKALINE PHOSPHATASE [2]: 555.67 u/L | ASPARTATE AMINOTRANSFERASE [2]: 110.67 u/L | BLOOD UREA NITROGEN [2]: 15.67 mg/dL | CARBON DIOXIDE [2]: 32.33 mmol/L | CHLORIDE [2]: 99.67 MEQ/L | CHOLESTEROL [2]: 134.33 mg/dL | CREATINE PHOSPHOKINASE [2]: 382 u/L | CREATININE [2]: 0.22 mg/dL | GLUCOSE [2]: 140 mg/dL | LACTATE DEHYDROGENASE [2]: 129.67 u/L | LIPASE [2]: 11.33 u/L | PHOSPHORUS [2]: 12.07 mg/dL | POTASSIUM [2]: 5.88 MEQ/L | SODIUM [2]: 143.37 MEQ/L | TOTAL BILIRUBIN [2]: 0.47 mg/dL | TOTAL PROTEIN [2]: 5.77 G/DL | URIC ACID [2]: 0.43 mg/dL | ABSOLUTE SEGMENTED NEUTROPHIL [3]: 1008.67 CELLS/uL | BASOPHIL [3]: 0.97% and 0% | EOSINOPHIL [3]: 0.55% and 0% | ERYTHROCYTE COUNT [3]: 7.33 x10E6/uL and 5.52 x10E6/uL | HEMATOCRIT [3]: 45.42% and 34.13% | HEMOGLOBIN [3]: 14.18 G/DL and 13.07 G/DL | LEUKOCYTE COUNT [3]: 20.78 x10E3/uL and 14.4 x10E3/uL | LYMPHOCYTE [3]: 80.47% and 90% | MEAN CORPUSCULAR HEMOGLOBIN [3]: 19.32 pg and 23.73 pg | MEAN CORPUSCULAR HEMOGLOBIN CONCENTRATION [3]: 31.2 G/DL and 38.33 G/DL | MEAN CORPUSCULAR VOLUME [3]: 61.95 fL and 61.97 fL | MONOCYTE [3]: 3.85% and 3% | NEUTROPHIL [3]: 12.68% and 7% | NUCLEATED RED BLOOD CELLS [3]: 0 /100WBC | PLATELET COUNT [3]: 1277.75 x10E3/uL and 1530.33 x10E3/uL | ALANINE AMINOTRANSFERASE [3]: 138.25 u/L and 130.33 u/L | ALBUMIN [3]: 3.45 G/DL and 4.23 G/DL | ALKALINE PHOSPHATASE [3]: 618 u/L and 531.33 u/L | ASPARTATE AMINOTRANSFERASE [3]: 321 u/L and 308.67 u/L | BLOOD UREA NITROGEN [3]: 15.75 mg/dL and 15.33 mg/dL | CARBON DIOXIDE [3]: 37 mmol/L and 36.67 mmol/L | CHLORIDE [3]: 104.75 MEQ/L and 97.67 MEQ/L | CHOLESTEROL [3]: 98.5 mg/dL and 113.67 mg/dL | CREATINE PHOSPHOKINASE [3]: 398.5 u/L and 603.33 u/L | CREATININE [3]: 0.5 mg/dL and 0.25 mg/dL | GLUCOSE [3]: 151.25 mg/dL and 120.33 mg/dL | LACTATE DEHYDROGENASE [3]: 162.5 u/L and 250.33 u/L | LIPASE [3]: 17 u/L and 9.67 u/L | PHOSPHORUS [3]: 11.03 mg/dL and 12.1 mg/dL | POTASSIUM [3]: 6.62 MEQ/L and 5.82 MEQ/L | SODIUM [3]: 151 MEQ/L and 142.77 MEQ/L | TOTAL BILIRUBIN [3]: 0.4 mg/dL and 0.37 mg/dL | TOTAL PROTEIN [3]: 5.72 G/DL and 6.2 G/DL | URIC ACID [3]: 1.07 mg/dL and 0.63 mg/dL | ABSOLUTE BASOPHIL [4]: 150 cells/µL | ABSOLUTE EOSINOPHIL [4]: 75 cells/µL | ABSOLUTE LYMPHOCYTE [4]: 12900 cells/µL | ABSOLUTE MONOCYTE [4]: 390 cells/µL | BASOPHIL [4]: 0.77% | EOSINOPHIL [4]: 0.5% | ERYTHROCYTE COUNT [4]: 8.39 x10E6/uL | HEMATOCRIT [4]: 49.5% | HEMOGLOBIN [4]: 15.85 G/DL | LEUKOCYTE COUNT [4]: 15.58 x10E3/uL | LYMPHOCYTE [4]: 82.28% | MEAN CORPUSCULAR HEMOGLOBIN [4]: 18.95 pg | MEAN CORPUSCULAR HEMOGLOBIN CONCENTRATION [4]: 32.1 G/DL | MEAN CORPUSCULAR VOLUME [4]: 59.02 fL | MONOCYTE [4]: 2.45% | NEUTROPHIL [4]: 12.85% | PLATELET COUNT [4]: 1440.5 x10E3/uL | ALANINE AMINOTRANSFERASE [4]: 70.83 u/L | ALBUMIN [4]: 3.47 G/DL | ALKALINE PHOSPHATASE [4]: 569.83 u/L | ASPARTATE AMINOTRANSFERASE [4]: 277.5 u/L | BLOOD UREA NITROGEN [4]: 17.17 mg/dL | CARBON DIOXIDE [4]: 33.83 mmol/L | CHLORIDE [4]: 106.33 MEQ/L | CHOLESTEROL [4]: 60.17 mg/dL | CREATINE PHOSPHOKINASE [4]: 264.5 u/L | CREATININE [4]: 0.7 mg/dL | GLUCOSE [4]: 134.5 mg/dL | LACTATE DEHYDROGENASE [4]: 165.67 u/L | LIPASE [4]: 22.2 u/L | PHOSPHORUS [4]: 11.25 mg/dL | POTASSIUM [4]: 6.93 MEQ/L | SODIUM [4]: 150.83 MEQ/L | TOTAL BILIRUBIN [4]: 0.65 mg/dL | TOTAL PROTEIN [4]: 5.93 G/DL | URIC ACID [4]: 1.82 mg/dL
